Like-named read-outs stand apart in the source and are kept apart here.
Tests used:
Type in all cases: biochemical
[1] = molecular target: human ADAMTS-5 (Homo sapiens (Human), UniProt Q9UNA0); experiment: hADAMTS-5 TBIS-1 cleavage assay, Protocol 3; conditions: Protocol 3, TBIS-1 substrate, 90 min at 37° C.; read-out: hADAMTS-5 potency IC50
Procedure: The reaction is initiated by adding to the assay plate TBIS-1 (10 μL, 4.5 μM, Anaspec) in the same buffer.
Finally, the fluorescence is read on the Envision (Perkin Elmer) after an incubation of 90 min at 37° C. (Excitation 485 nm, emission 530).

[2] = molecular target: human ADAMTS6 (Homo sapiens (Human), UniProt Q9UKP5); experiment: hADAMTS-6 520 MMP FRET substrate XII cleavage assay; conditions: 37° C. for 2 h, read-out: hADAMTS-6 potency IC50
From the text: The IC50 value for test compounds can be determined in a fluorescent based protease assay.
The basis for the assay is the cleavage of the substrate 520 MMP FRET substrate XII by human ADAMTS6.
The substrate contains sequence Arg-Pro-Lys-Pro-Tyr-Ala-Nva-Trp-Met-Lys (SEQ ID NO: 7) with attached a fluorescent probe and a quencher. Without ADAMTS6, the emission of the probe is quenched. If the substrate is cleaved by ADAMTS6, the emission of the probe is not quenched anymore. Inhibition of ADAMTS6 activity, will result in a decrease of the signal.
To perform the assay, 4 μL of a dilution series of compound in water, starting from 20 μM highest concentration, 1/5 dilution, is added to the wells. 2 ng ADAMTS6 enzyme is diluted in 25 mM Tris pH8.0, 0.05% CHAPS, 2.5 mM CaCl2 in a total volume of 26 μL (final concentration 0.73 nM). The reaction is started by addition of 10 μL of 1 μM 520 MMP FRET Substrate XII (final concentration, diluted in same buffer as described above) and the mixture is incubated at 37° C. for 2 h. […] After this incubation, cleavage of the substrate is measured using the Envision (Perkin Elmer, exc485/em530).

[3] = molecular target: human TACE (Homo sapiens (Human), UniProt P78536); experiment: hTACE 5FAM-[…]-5TAMRA cleavage assay; conditions: 75 min at room temperature, read-out: hTACE potency IC50
Procedure: Finally, the fluorescence is read on the Envision (Perkin Elmer) after an incubation of 75 min at room temperature (Excitation 485 nm, Emission 530).

Sequence of human ADAMTS-5 (Q9UNA0 262-930): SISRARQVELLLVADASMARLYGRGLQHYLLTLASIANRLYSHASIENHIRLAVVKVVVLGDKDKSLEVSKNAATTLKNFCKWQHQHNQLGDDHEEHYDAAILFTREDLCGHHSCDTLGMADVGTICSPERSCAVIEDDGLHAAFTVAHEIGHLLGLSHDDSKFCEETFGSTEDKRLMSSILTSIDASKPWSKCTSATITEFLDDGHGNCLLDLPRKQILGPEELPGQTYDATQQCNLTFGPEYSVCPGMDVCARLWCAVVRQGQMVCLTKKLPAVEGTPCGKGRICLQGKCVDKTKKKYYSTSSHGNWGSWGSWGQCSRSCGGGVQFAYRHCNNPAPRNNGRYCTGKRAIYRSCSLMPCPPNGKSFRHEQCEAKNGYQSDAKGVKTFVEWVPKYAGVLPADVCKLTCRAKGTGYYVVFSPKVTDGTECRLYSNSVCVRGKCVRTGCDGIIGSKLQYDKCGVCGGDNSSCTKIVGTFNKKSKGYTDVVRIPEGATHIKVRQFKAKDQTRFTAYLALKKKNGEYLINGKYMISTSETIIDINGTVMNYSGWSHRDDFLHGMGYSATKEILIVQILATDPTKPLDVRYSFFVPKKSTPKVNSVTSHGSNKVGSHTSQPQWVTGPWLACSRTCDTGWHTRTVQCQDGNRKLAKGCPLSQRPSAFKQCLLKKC
Sequence of human ADAMTS6 (Q9UKP5 other isoform, or with tags, fused parts or gaps): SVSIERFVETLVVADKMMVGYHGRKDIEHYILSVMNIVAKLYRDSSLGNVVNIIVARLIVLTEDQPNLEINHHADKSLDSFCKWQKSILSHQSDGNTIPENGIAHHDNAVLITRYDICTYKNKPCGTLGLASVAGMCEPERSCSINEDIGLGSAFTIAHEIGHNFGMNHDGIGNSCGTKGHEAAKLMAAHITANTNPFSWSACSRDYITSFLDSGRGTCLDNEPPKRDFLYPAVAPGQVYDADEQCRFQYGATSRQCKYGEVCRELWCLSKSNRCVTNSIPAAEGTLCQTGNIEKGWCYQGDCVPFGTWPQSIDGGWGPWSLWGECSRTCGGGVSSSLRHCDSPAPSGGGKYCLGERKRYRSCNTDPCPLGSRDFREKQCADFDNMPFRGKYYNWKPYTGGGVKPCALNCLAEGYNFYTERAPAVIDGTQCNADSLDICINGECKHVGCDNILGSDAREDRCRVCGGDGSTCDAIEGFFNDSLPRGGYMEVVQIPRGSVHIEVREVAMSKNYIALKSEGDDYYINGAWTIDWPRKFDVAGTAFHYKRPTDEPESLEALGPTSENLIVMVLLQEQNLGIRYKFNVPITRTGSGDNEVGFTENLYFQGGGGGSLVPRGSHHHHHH
Sequence of human TACE (P78536 215-671): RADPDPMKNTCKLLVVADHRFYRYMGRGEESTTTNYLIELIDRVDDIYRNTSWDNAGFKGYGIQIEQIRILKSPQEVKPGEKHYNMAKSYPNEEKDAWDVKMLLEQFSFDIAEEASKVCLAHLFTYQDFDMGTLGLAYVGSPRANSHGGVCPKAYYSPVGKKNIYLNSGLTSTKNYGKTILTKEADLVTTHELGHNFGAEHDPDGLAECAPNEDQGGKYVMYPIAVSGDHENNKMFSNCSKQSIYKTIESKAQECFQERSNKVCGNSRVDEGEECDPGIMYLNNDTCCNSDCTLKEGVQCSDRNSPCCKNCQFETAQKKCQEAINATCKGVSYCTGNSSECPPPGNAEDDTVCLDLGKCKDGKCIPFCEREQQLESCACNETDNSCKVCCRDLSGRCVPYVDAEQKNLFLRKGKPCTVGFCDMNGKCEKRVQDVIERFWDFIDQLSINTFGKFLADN

IC50 [1] [nM] | IC50 [2] [nM] | IC50 ([3]; 5FAM-[…]-5TAMRA) [nM] | IC50 ([3]; 5FAM-LAQAVRSSSRK-5TAMRA) [nM] | Compound
> 100 | > 100 |  |  | O=C1NC(=O)[C@@H](CCC(=O)N2CCC(c3ccc(F)c(F)c3)CC2)N1 [Cpd 53, (R)-5-(3-(4-(3,4-difluorophenyl)piperidin-1-yl)-3-oxopropyl) imidazolidine-2,4-dione]
> 100 | > 100 |  |  | COc1ccc(OC)c(C2CCN(C(=O)CCC3(C)NC(=O)NC3=O)CC2)c1 (centres unmarked) [Cpd 39, 5-(3-(4-(2,5-dimethoxy-phenyl)piperidin-1-yl)-3-oxopropyl)-5-methyl-imidazolidine-2,4-dione]
 | 0.001 to 25 |  |  | COc1cc(C2CCN(C(=O)CCC3(C)NC(=O)NC3=O)CC2)c(C)cc1Cl (centres unmarked) [Cpd 37, 5-(3-(4-(4-chloro-5-methoxy-2-methylphenyl)piperidin-1-yl)-3-oxopropyl)-5-methyl-imidazolidine-2,4-dione]
 | 25 to 50 |  |  | COc1cc(C2CCN(C(=O)CC[C@@]3(C)NC(=O)NC3=O)CC2)c(C)cc1F [Cpd 83, (5R)-5-[3-[4-(4-fluoro-5-methoxy-2-methyl-phenyl)-1-piperidyl]-3-oxo-propyl]-5-methyl-imidazolidine-2,4-dione]
 | 0.001 to 25 | 50 to 100 |  | COc1cc(C2CCN(C(=O)CC[C@H]3NC(=O)NC3=O)CC2)cc(Cl)c1Cl [Cpd 69, (R)-5-(3-(4-(3,4-dichloro-5-methoxyphenyl)piperidin-1-yl)-3-oxopropyl) imidazolidine-2,4-dione]
> 100 | > 100 |  |  | CC1(CCC(=O)N2CCC(c3ccc(F)c(F)c3)CC2)NC(=O)NC1=O (centres unmarked) [Cpd 56, 5-(3-(4-(3,4-difluorophenyl)piperidin-1-yl)-3-oxopropyl)-5-methyl-imidazolidine-2,4-dione]
> 100 | 50 to 100 |  |  | Cc1cc(Cl)ccc1C1CCN(C(=O)CCC2(C)NC(=O)NC2=O)CC1 (centres unmarked) [Cpd 60, 5-(3-(4-(4-chloro-2-methylphenyl)piperidin-1-yl)-3-oxopropyl)-5-methyl-imidazolidine-2,4-dione]
 | 0.001 to 25 |  |  | COc1cc(Cl)c(Cl)cc1C1CCN(C(=O)CCC2(c3cccc(C)n3)NC(=O)NC2=O)CC1 (centres unmarked) [Cpd 92, 5-[3-[4-(4,5-dichloro-2-methoxy-phenyl)-1-piperidyl]-3-oxo-propyl]-5-(6-methyl-2-pyridyl) imidazolidine-2,4-dione]
> 100 | 50 to 100 |  |  | Cc1cc(Cl)c(F)cc1C1CCN(C(=O)CC[C@H]2NC(=O)NC2=O)CC1 [Cpd 63, (R)-5-(3-(4-(4-chloro-5-fluoro-2-methylphenyl)piperidin-1-yl)-3-oxopropyl) imidazolidine-2,4-dione]
> 100 | > 100 |  |  | COc1ccc(C2CCN(C(=O)CC[C@H]3NC(=O)NC3=O)CC2)cc1 [Cpd 30, (R)-5-(3-(4-(4-methoxyphenyl)piperidin-1-yl)-3-oxopropyl) imidazolidine-2,4-dione]
> 100 | 50 to 100 |  |  | CC1(CCC(=O)N2CCC(c3ccc(-c4ccccc4F)s3)CC2)NC(=O)NC1=O (centres unmarked) [Cpd 112, 5-[3-[4-[5-(2-fluorophenyl)-2-thienyl]-1-piperidyl]-3-oxo-propyl]-5-methyl-imidazolidine-2,4-dione]
25 to 50 | 25 to 50 |  | > 100 | C[C@H]1CN(C(=O)CC[C@@]2(C3CC3)NC(=O)NC2=O)CC[C@H]1c1ccc(F)c(F)c1 [Cpd 78, (S)-5-cyclopropyl-5-(3-((3R,4R)-4-(3,4-difluorophenyl)-3-methylpiperidin-1-yl)-3-oxopropyl) imidazolidine-2,4-dione]
> 100 | > 100 |  |  | COc1ccc(Cl)cc1C1CCN(C(=O)CC[C@H]2NC(=O)NC2=O)CC1 [Cpd 40, (R)-5-(3-(4-(5-chloro-2-methoxy-phenyl)piperidin-1-yl)-3-oxopropyl) imidazolidine-2,4-dione]
50 to 100 | 25 to 50 |  |  | C[C@H]1CN(C(=O)CC[C@@]2(C)NC(=O)NC2=O)CC[C@H]1c1ccc(F)c(F)c1 [Cpd 99, (5R)-5-[3-[(3R,4R)-4-(3,4-difluorophenyl)-3-methyl-1-piperidyl]-3-oxo-propyl]-5-methyl-imidazolidine-2,4-dione]
50 to 100 | 50 to 100 |  | > 100 | C[C@H]1CN(C(=O)CCC2(C3CC3)NC(=O)NC2=O)CC[C@H]1c1ccc(F)c(F)c1 (stereo partly drawn) [Cpd 76, 5-cyclopropyl-5-(3-((3R,4R)-4-(3,4-difluorophenyl)-3-methylpiperidin-1-yl)-3-oxopropyl) imidazolidine-2,4-dione]
> 100 | > 100 |  | > 100 | COc1cc(C2CCN(C(=O)CC[C@H]3NC(=O)NC3=O)CC2)ccc1F [Cpd 52, (R)-5-(3-(4-(4-fluoro-3-methoxyphenyl)piperidin-1-yl)-3-oxopropyl) imidazolidine-2,4-dione]
 | 0.001 to 25 | 50 to 100 |  | COc1cc(C2CCN(C(=O)CC[C@@]3(C)NC(=O)NC3=O)CC2)cc(Cl)c1Cl [Cpd 68, (R)-5-(3-(4-(3,4-dichloro-5-methoxyphenyl)piperidin-1-yl)-3-oxopropyl)-5-methylimidazolidine-2,4-dione]
> 100 | 0.001 to 25 | 50 to 100 |  | CCOc1cc(C2CCN(C(=O)CC[C@H]3NC(=O)NC3=O)CC2)cc(OC)c1Cl [Cpd 88, (5R)-5-[3-[4-(4-chloro-3-ethoxy-5-methoxy-phenyl)-1-piperidyl]-3-oxo-propyl] imidaz olidine-2,4-dione]
 | 25 to 50 |  |  | COc1cc(C2CCN(C(=O)CC[C@H]3NC(=O)NC3=O)CC2)cc(N(C)C)c1Cl [Cpd 91]
> 100 | > 100 |  |  | COc1ccc(OC)c(C2CCN(C(=O)CC[C@H]3NC(=O)NC3=O)CC2)c1 [Cpd 35, (R)-5-(3-(4-(2,5-dimethoxy-phenyl)piperidin-1-yl)-3-oxopropyl) imidazolidine-2,4-dione]
 | 0.001 to 25 |  |  | COc1cc(Cl)c(Cl)cc1C1CCN(C(=O)CCC2(C)NC(=O)NC2=O)CC1 (centres unmarked) [Cpd 62, 5-(3-(4-(4,5-dichloro-2-methoxyphenyl)piperidin-1-yl)-3-oxopropyl)-5-methyl-imidazolidine-2,4-dione]
 | 25 to 50 |  |  | C[C@]1(CCC(=O)N2CCC(c3ccc(Cl)c(C(F)(F)F)c3)CC2)NC(=O)NC1=O [Cpd 94, (5R)-5-[3-[4-[4-chloro-3-(trifluoromethyl)phenyl]-1-piperidyl]-3-oxo-propyl]-5-methyl-imidazolidine-2,4-dione]
> 100 | > 100 |  | > 100 | C[C@H]1CN(C(=O)CC[C@@]2(C3CC3)NC(=O)NC2=O)CC[C@@H]1c1ccc(F)c(F)c1 [Cpd 77, (S)-5-cyclopropyl-5-(3-((3R,4S)-4-(3,4-difluorophenyl)-3-methylpiperidin-1-yl)-3-oxopropyl) imidazolidine-2,4-dione]
> 100 | > 100 |  |  | COc1c(Cl)cccc1C1CCN(C(=O)CC[C@@]2(C)NC(=O)NC2=O)CC1 [Cpd 86, (5R)-5-[3-[4-(3-chloro-2-methoxy-phenyl)-1-piperidyl]-3-oxo-propyl]-5-methyl-imidazolidine-2,4-dione]
 | > 100 |  |  | Cc1cc(Cl)ccc1C1CCN(C(=O)CC[C@H]2NC(=O)NC2=O)CC1 [Cpd 59, (R)-5-(3-(4-(4-chloro-2-methylphenyl)piperidin-1-yl)-3-oxopropyl) imidazolidine-2,4-dione]
> 100 | > 100 |  |  | COc1ccc(C2CCN(C(=O)CCC3(C)NC(=O)NC3=O)CC2)cc1 (centres unmarked) [Cpd 31, 5-(3-(4-(4-methoxyphenyl)piperidin-1-yl)-3-oxopropyl)-5-methyl-imidazolidine-2,4-dione]
 | 0.001 to 25 | 50 to 100 |  | COc1cc(C2CCN(C(=O)CC[C@H]3NC(=O)NC3=O)CC2)cc(OC)c1F [Cpd 82, (5R)-5-[3-[4-(4-fluoro-3,5-dimethoxy-phenyl)-1-piperidyl]-3-oxo-propyl] imidazolidine-2,4-dione]
 | 0.001 to 25 |  |  | Cc1cc(C2CCN(C(=O)CC[C@@]3(C)NC(=O)NC3=O)CC2)ccc1Cl [Cpd 95, (5R)-5-[3-[4-(4-chloro-3-methyl-phenyl)-1-piperidyl]-3-oxo-propyl]-5-methyl-imidazolidine-2,4-dione]
